Laboratory results as given in patent US20230330254A1 (Regeneron Pharmaceuticals, Inc., priority 2022, published 2023).
Read-outs that look alike come from different tables or passages of the source. *1 amine or outer side, *2 acyl side, *3 side chain or, on linkers, in order; H or OH if unused. Where a SMILES comes first, the peptide text is derived from it. Side-chain parts run from the residue outwards. [ ]: non-standard residue; d: D form. The star is where a group is joined. PEG24 = NCCOCCOCCOCCOCCOCCOCCOCCOCCOCCOCCOCCOCCOCCOCCOCCOCCOCCOCCOCCOCCOCCOCCOCCOCCC(=O)O; Bip(2'-Et-4'-O(CH2)4NH2) = CCc1cc(OCCCCN[*:3])ccc1-c1ccc(C[C@H](N[*:1])C(=O)[*:2])cc1; Bip(2'-Et,4'-O(CH2)4N3) = CCc1cc(OCCCCN=[N+]=[N-])ccc1-c1ccc(C[C@H](N)C(=O)O)cc1; Bip(2'-Et,4'-O(CH2)4NH2) = CCc1cc(OCCCCN)ccc1-c1ccc(C[C@H](N)C(=O)O)cc1; Malonyl(2,2-Me2,histaminyl) = CC(C)(C(=O)NCCc1cnc[nH]1)C(=O)*; PEG12 = NCCOCCOCCOCCOCCOCCOCCOCCOCCOCCOCCOCCOCCC(=O)O; Nva(5-(3,5-Me2Ph)) = Cc1cc(C)cc(CCC[C@H](N)C(=O)O)c1; Ala(1H-tetrazol-5-yl) = N[C@@H](Cc1nnn[nH]1)C(=O)O; αMePhe(2-F) = C[C@](N)(Cc1ccccc1F)C(=O)O; X9 = O=C([C@@H]1CCN(CCc2cnc[nH]2)C1)*; DBCO = C1#Cc2ccccc2N(*)Cc2ccccc21; Suc = O=C(CCC(=O)[*:2])[*:1]; X1 = O=C(CCCCCc1cnc[nH]1)*; X2 = CC(C)(C(N)=O)C(=O)*

Tests used:
[1] = test system: HEK293/CRE-Luc cells; experiment: Luciferase reporter assay, HEK293/CRE-Luc cells without GLP1R (Example 17); format: cell-based, human
From the text: (§1) To test the activity of GLP1R agonist payloads, GLP1R agonist linker-payloads (LPs), and anti-GLP1R antibody tethered drug conjugates (ATDCs) of the invention, a cell-based cAMP responsive luciferase reporter assay was developed. To generate the assay cell line, the firefly luciferase gene was placed under the control of a cAMP response element (CRE) located upstream of a minimal promoter and transfected into HEK293 cells and referred to herein as HEK293/CRE-Luc cells.
(§2) Three-fold serial dilutions of free payloads or LPs were prepared in 100% DMSO, transferred to fresh assay media, and added to the cells at a final constant DMSO concentration of 0.2%. The last well in the plate served as a blank control containing only the assay media and 0.2% DMSO (untreated well) and was plotted as a continuation of the 3-fold serial dilution. Four to six hours later, luciferase activity was determined after the addition of One-Glo™ reagent (Promega, Cat #E6130) to each well. Relative light units (RLUs) were measured on an Envision luminometer (PerkinElmer) and EC50 values were determined using a four-parameter logistic equation over a 12-point dose response curve (GraphPad Prism). The signal to noise (S/N) was determined by taking the ratio of the highest RLU on the dose response curve to the RLU in the untreated wells. Data was generated across several experiments (A-E) with M2361 serving as a reference standard in each experiment to calculate the payload relative potency ((M2361 EC50/payload EC50)*100)) and relative S/N ((payload SN/M2361 SN)*100)).

[2] = biological target: human GLP1R (Homo sapiens, UniProt P43220); experiment: Luciferase reporter assay, HEK293/CRE-Luc/hGLP1R (Example 17); format: cell-based; set-up: engineered to express full-length human GLP1R, cynomolgus GLP1R; expressed in transfected cells; host or cells: HEK293/CRE-Luc; settings: for S/N: highest RLU / RLU of untreated wells; for Relative Potency (% M2361 EC50) / Relative Signal:Noise (% M2361): relative to M2361 of the same experiment
From the text: as §1, §2

[3] = HEK293/CRE-Luc cells without hGLP1R, payloads and linker-payloads
[4] = HEK293/CRE-Luc cells without hGLP1R, payloads and linker-payloads, read-out: EC50
[5] = HEK293/CRE-Luc/hGLP1R, payloads and linker-payloads, experiments A-E, M2361 repeated in each, read-out: EC50
[6] = text b1830, read-out: EC50 in HEK293/CRE-Luc/hGLP1R cells
[7] = Table 28, reporter cells without GLP1R, read-out: HEK293/CRE-Luc EC50
[8] = Table 29, reporter cells without GLP1R, read-out: HEK293/CRE-Luc EC50

human GLP1R, sequence (P43220 24-463): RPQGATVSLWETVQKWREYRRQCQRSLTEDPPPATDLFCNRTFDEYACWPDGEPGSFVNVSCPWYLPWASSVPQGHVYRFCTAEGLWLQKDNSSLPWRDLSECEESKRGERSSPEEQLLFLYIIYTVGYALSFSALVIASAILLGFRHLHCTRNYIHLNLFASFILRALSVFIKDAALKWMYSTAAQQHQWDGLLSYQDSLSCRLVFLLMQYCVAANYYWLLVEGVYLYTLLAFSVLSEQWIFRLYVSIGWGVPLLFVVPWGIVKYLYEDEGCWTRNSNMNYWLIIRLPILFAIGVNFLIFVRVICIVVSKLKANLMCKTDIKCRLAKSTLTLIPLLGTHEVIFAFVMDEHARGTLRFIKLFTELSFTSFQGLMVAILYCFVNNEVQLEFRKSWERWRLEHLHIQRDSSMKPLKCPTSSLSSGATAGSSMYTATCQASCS

Compound | S/N [1, 3] | EC50 [1, 4] [nM] | S/N ([2]; HEK293/CRE-Luc/hGLP1R) | EC50 [2, 5] [nM] | Relative Potency (% M2361 EC50) ([2]; HEK293/CRE-Luc/hGLP1R) [%] | Relative Signal:Noise (% M2361) ([2]; HEK293/CRE-Luc/hGLP1R) [%] | EC50 [2, 6] [nM] | EC50 [1, 7] [nM] | EC50 [1, 8] [nM]
CCc1cc(OCCCCN)ccc1-c1ccc(C[C@H](NC(=O)[C@H](CC(=O)O)NC(=O)[C@H](CO)NC(=O)[C@@H](NC(=O)[C@](C)(Cc2ccccc2F)NC(=O)[C@@H](NC(=O)CNC(=O)[C@H](Cc2nn[nH]n2)NC(=O)C2(C)CCN(CCc3cnc[nH]3)C2=O)[C@@H](C)O)[C@@H](C)O)C(=O)N[C@@H](CCCc2cc(C)cc(C)c2)C(N)=O)cc1 (stereo in doubt) [P14] | 1.6 | > 200 | 74.9 | 0.184 | 2.9 | 113.9 |  |  | 
CCc1cc(OCCCCNC(=O)CCOCCOCCOCCOCCOCCOCCOCCOCCOCCOCCOCCOCCNC(=O)CCC(=O)N2Cc3ccccc3C#Cc3ccccc32)ccc1-c1ccc(C[C@H](NC(=O)[C@H](CC(=O)O)NC(=O)[C@H](CO)NC(=O)[C@@H](NC(=O)[C@](C)(Cc2ccccc2F)NC(=O)[C@@H](NC(=O)CNC(=O)[C@H](Cc2nn[nH]n2)NC(=O)C(C)(C)C(=O)NCCc2cnc[nH]2)[C@@H](C)O)[C@@H](C)O)C(=O)N[C@@H](CCCc2cc(C)cc(C)c2)C(N)=O)cc1 [LP3, DIBAC-suc-PEG12-P9] ({Malonyl(2,2-Me2,histaminyl)}-[Ala(1H-tetrazol-5-yl)]GT[αMePhe(2-F)]TSD[Bip(2'-Et-4'-O(CH2)4NH2)]([PEG12-Suc-DBCO])[Nva(5-(3,5-Me2Ph))]-NH2) |  |  | 293.2 | 0.0976 | 28.0 | 124.3 |  |  | 
CCc1cc(OCCCCNC(=O)CCOCCOCCOCCOCCOCCOCCOCCOCCOCCOCCOCCOCCOCCOCCOCCOCCOCCOCCOCCOCCOCCOCCOCCOCCNC(=O)CCC(=O)N2Cc3ccccc3C#Cc3ccccc32)ccc1-c1ccc(C[C@H](NC(=O)[C@H](CC(=O)O)NC(=O)[C@H](CO)NC(=O)[C@@H](NC(=O)[C@](C)(Cc2ccccc2F)NC(=O)[C@@H](NC(=O)CNC(=O)[C@H](Cc2nn[nH]n2)NC(=O)C(C)(C)C(N)=O)[C@@H](C)O)[C@@H](C)O)C(=O)N[C@@H](CCCc2cc(C)cc(C)c2)C(N)=O)cc1 [LP13, DIBAC-suc-PEG24-P4] (X2-[Ala(1H-tetrazol-5-yl)]GT[αMePhe(2-F)]TSD[Bip(2'-Et-4'-O(CH2)4NH2)]([PEG24-Suc-DBCO])[Nva(5-(3,5-Me2Ph))]-NH2) | 1.3 | > 20 | 79.3 | 4.83 | 0.2 | 110.2 |  |  | 
CCc1cc(OCCCCNC(=O)[C@H](CO)NC(=O)CNC(=O)CNC(=O)CNC(=O)CNC(=O)CCC(=O)N2Cc3ccccc3C#Cc3ccccc32)ccc1-c1ccc(C[C@H](NC(=O)[C@H](CC(=O)O)NC(=O)[C@H](CO)NC(=O)[C@@H](NC(=O)[C@](C)(Cc2ccccc2F)NC(=O)[C@@H](NC(=O)CNC(=O)[C@H](Cc2nn[nH]n2)NC(=O)C(C)(C)C(N)=O)[C@@H](C)O)[C@@H](C)O)C(=O)N[C@@H](CCCc2cc(C)cc(C)c2)C(N)=O)cc1 [LP14, DIBAC- suc-G4S- P4] | 1.3 | > 20 | 78.1 | 0.366 | 2.2 | 108.6 |  |  | 
CCc1cc(OCCCCNC(=O)[C@H](CO)NC(=O)CNC(=O)CNC(=O)CNC(=O)CNC(=O)[C@H](CO)NC(=O)CNC(=O)CNC(=O)CNC(=O)CNC(=O)CCC(=O)N2Cc3ccccc3C#Cc3ccccc32)ccc1-c1ccc(C[C@H](NC(=O)[C@H](CC(=O)O)NC(=O)[C@H](CO)NC(=O)[C@@H](NC(=O)[C@](C)(Cc2ccccc2F)NC(=O)[C@@H](NC(=O)CNC(=O)[C@H](Cc2nn[nH]n2)NC(=O)C(C)(C)C(=O)NCCc2cnc[nH]2)[C@@H](C)O)[C@@H](C)O)C(=O)N[C@@H](CCCc2cc(C)cc(C)c2)C(N)=O)cc1 [LP17, DIBAC- suc-G4S- G4S-P9] |  |  | 258.0 | 0.0542 | 50.4 | 109.4 |  |  | 
CCc1cc(OCCCCN=[N+]=[N-])ccc1-c1ccc(C[C@H](NC(=O)[C@H](CC(=O)O)NC(=O)[C@H](CO)NC(=O)[C@@H](NC(=O)[C@](C)(Cc2ccccc2F)NC(=O)[C@@H](NC(=O)CNC(=O)[C@@H](N)Cc2nn[nH]n2)[C@@H](C)O)[C@@H](C)O)C(=O)N[C@@H](CCCc2cc(C)cc(C)c2)C(N)=O)cc1 [M2383] (H-[Ala(1H-tetrazol-5-yl)]GT[αMePhe(2-F)]TSD[Bip(2'-Et,4'-O(CH2)4N3)][Nva(5-(3,5-Me2Ph))]-NH2) | 1.8 | > 200 | 293.3 | > 200 | 0.0 | 89.4 | > 20 |  | 
CCc1cc(OCCCCNC(=O)CCOCCOCCOCCOCCOCCOCCOCCOCCOCCOCCOCCOCCOCCOCCOCCOCCOCCOCCOCCOCCOCCOCCOCCOCCNC(=O)CCC(=O)N2Cc3ccccc3-c3nn[nH]c3-c3ccccc32)ccc1-c1ccc(C[C@H](NC(=O)[C@H](CC(=O)O)NC(=O)[C@H](CO)NC(=O)[C@@H](NC(=O)[C@](C)(Cc2ccccc2F)NC(=O)[C@@H](NC(=O)CNC(=O)[C@H](Cc2nn[nH]n2)NC(=O)C(C)(C)C(=O)NCCc2cnc[nH]2)[C@@H](C)O)[C@@H](C)O)C(=O)N[C@@H](CCCc2cc(C)cc(C)c2)C(C)=O)cc1 [M2547] |  |  | 267.8 |  | 38.6 | 81.7 |  |  | 
CCc1cc(OCCCCNC(=O)[C@H](CO)NC(=O)CNC(=O)CNC(=O)CNC(=O)CN)ccc1-c1ccc(C[C@H](NC(=O)[C@H](CC(=O)O)NC(=O)[C@H](CO)NC(=O)[C@@H](NC(=O)[C@](C)(Cc2ccccc2F)NC(=O)[C@@H](NC(=O)CNC(=O)[C@H](Cc2nn[nH]n2)NC(=O)C(C)(C)C(=O)NCCc2cnc[nH]2)[C@@H](C)O)[C@@H](C)O)C(=O)N[C@@H](CCCc2cc(C)cc(C)c2)C(N)=O)cc1 [M2739, G4S-P9] |  |  | 282.1 | 0.01 | 193.4 | 86.0 |  |  | 
CCc1cc(OCCCCNC(=O)CCOCCOCCOCCOCCOCCOCCOCCOCCOCCOCCOCCOCCOCCOCCOCCOCCOCCOCCOCCOCCOCCOCCOCCOCCNC(=O)CCC(=O)N2Cc3ccccc3C#Cc3ccccc32)ccc1-c1ccc(C[C@H](NC(=O)[C@H](CC(=O)O)NC(=O)[C@H](CO)NC(=O)[C@@H](NC(=O)[C@](C)(Cc2ccccc2F)NC(=O)[C@@H](NC(=O)CNC(=O)[C@H](Cc2nn[nH]n2)NC(=O)CCCCCc2cnc[nH]2)[C@@H](C)O)[C@@H](C)O)C(=O)N[C@@H](CCCc2cc(C)cc(C)c2)C(N)=O)cc1 [M2944] (X1-[Ala(1H-tetrazol-5-yl)]GT[αMePhe(2-F)]TSD[Bip(2'-Et-4'-O(CH2)4NH2)]([PEG24-Suc-DBCO])[Nva(5-(3,5-Me2Ph))]-NH2) |  |  |  | > 20 |  |  | > 20 |  | 
CCc1cc(OCCCCN)ccc1-c1ccc(C[C@H](NC(=O)[C@H](CC(=O)O)NC(=O)[C@H](CO)NC(=O)[C@@H](NC(=O)[C@](C)(Cc2ccccc2F)NC(=O)[C@@H](NC(=O)CNC(=O)[C@H](Cc2nn[nH]n2)NC(=O)[C@@H]2CCN(CCc3cnc[nH]3)C2)[C@@H](C)O)[C@@H](C)O)C(=O)N[C@@H](CCCc2cc(C)cc(C)c2)C(N)=O)cc1 [P17] (X9-[Ala(1H-tetrazol-5-yl)]GT[αMePhe(2-F)]TSD[Bip(2'-Et,4'-O(CH2)4NH2)][Nva(5-(3,5-Me2Ph))]-NH2) | 1.0 | > 200 |  |  |  |  |  |  | 
GCG [reference compound] |  |  |  |  |  |  |  | > 200 | > 30
GIP [reference compound] |  |  |  |  |  |  |  | > 200 | > 30
GLP2 [reference compound] |  |  |  |  |  |  |  | > 200 | > 30
